From paper PMC6364417, “Kinase inhibitor library screening identifies synergistic drug combinations effective in sensitive and resistant melanoma cells” (Journal of Experimental & Clinical Cancer Research : CR, 2019)

Columns and labels:
Assay in all cases: Kinase inhibitor library screening, PrestoBlue cell viability, 1 or 10 μM, 72 h
501Mel cells (parental) = details: 501Mel Parental, 72 h
In short: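 Parental cells and Vemurafenib-resistant (XP) or Dabrafenib-resistant (GP) derivatives were treated with library kinase inhibitors at 1 and 10 μM for 72 h. Viability measured by PrestoBlue and expressed as % of untreated cells, at least in duplicate.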

[1] = test system: 501Mel-GP cells (Dabrafenib-resistant); details: 501Mel GP, 72 h
[2] = test system: 501Mel-XP cells (Vemurafenib-resistant); details: 501Mel XP, 72 h
A375 cells (parental) = details: A375 Parental, 72 h
[3] = test system: A375-GP cells (Dabrafenib-resistant); details: A375 GP, 72 h
[4] = test system: A375-XP cells (Vemurafenib-resistant); details: A375 XP, 72 h
IGR37 cells (parental) = details: IGR37 Parental, 72 h
[5] = test system: IGR37-GP cells (Dabrafenib-resistant); details: IGR37 GP, 72 h
[6] = test system: IGR37-XP cells (Vemurafenib-resistant); details: IGR37 XP, 72 h

| SMILES | cell viability (kinase inhibitor library screening) (501Mel cells (parental); 1μΜ) [%] | cell viability (kinase inhibitor library screening) (501Mel cells (parental); 10μΜ) [%] | cell viability (kinase inhibitor library screening) ([1]; 1μΜ) [%] | cell viability (kinase inhibitor library screening) ([1]; 10μΜ) [%] | cell viability (kinase inhibitor library screening) ([2]; 1μΜ) [%] | cell viability (kinase inhibitor library screening) ([2]; 10μΜ) [%] | cell viability (kinase inhibitor library screening) (A375 cells (parental); 10μΜ) [%] | cell viability (kinase inhibitor library screening) (A375 cells (parental); 1μΜ) [%] | cell viability (kinase inhibitor library screening) ([3]; 1μΜ) [%] | cell viability (kinase inhibitor library screening) ([3]; 10μΜ) [%] | cell viability (kinase inhibitor library screening) ([4]; 1μΜ) [%] | cell viability (kinase inhibitor library screening) ([4]; 10μΜ) [%] | cell viability (kinase inhibitor library screening) (IGR37 cells (parental); 1μΜ) [%] | cell viability (kinase inhibitor library screening) (IGR37 cells (parental); 10μΜ) [%] | cell viability (kinase inhibitor library screening) ([5]; 1μΜ) [%] | cell viability (kinase inhibitor library screening) ([5]; 10μΜ) [%] | cell viability (kinase inhibitor library screening) ([6]; 1μΜ) [%] | cell viability (kinase inhibitor library screening) ([6]; 10μΜ) [%] | Cell viability in kinase inhibitor library screening, 501Mel Parental, 1μΜ (501Mel cells (parental); 1μΜ, in %) | Cell viability in kinase inhibitor library screening, 501Mel Parental, 10μΜ (501Mel cells (parental); 10μΜ, in %) | also measured |
| --- | --- | --- | --- | --- | --- | --- | --- | --- | --- | --- | --- | --- | --- | --- | --- | --- | --- | --- | --- | --- | --- |
| CCOc1cc2ncc(C#N)c(Nc3ccc(F)c(Cl)c3)c2cc1NC(=O)/C=C/CN(C)C [Pelitinib (EKB-569)] |  |  |  |  |  |  |  |  |  |  |  |  |  |  |  |  |  |  |  |  | cell viability, 501Mel Parental, 1μΜ (501Mel cells (parental); 1μΜ, in %): 102.9; cell viability, 501Mel Parental, 10μΜ (501Mel cells (parental); 10μΜ, in %): 89.9; cell viability, 501Mel GP, 1μΜ ([1]; 1μΜ, in %): 102.6; cell viability, 501Mel GP, 10μΜ ([1]; 10μΜ, in %): 92.4; cell viability, 501Mel XP, 10μΜ ([2]; 10μΜ, in %): 91.9; cell viability, A375 Parental, 1μΜ (A375 cells (parental); 1μΜ, in %): 103.3; cell viability, A375 Parental, 10μΜ (A375 cells (parental); 10μΜ, in %): 79.2; cell viability, A375 GP, 1μΜ ([3]; 1μΜ, in %): 98.8; cell viability, A375 GP, 10μΜ ([3]; 10μΜ, in %): 88.7; cell viability, A375 XP, 1μΜ ([4]; 1μΜ, in %): 104.6; cell viability, A375 XP, 10μΜ ([4]; 10μΜ, in %): 96.9; cell viability, IGR37 Parental, 1μΜ (IGR37 cells (parental); 1μΜ, in %): 99.8; cell viability, IGR37 Parental, 10μΜ (IGR37 cells (parental); 10μΜ, in %): 97.0; cell viability, IGR37 GP, 10μΜ ([5]; 10μΜ): 92.3%; cell viability, IGR37 GP, 1μΜ ([5]; 1μΜ, in %): 97.5; cell viability, IGR37 XP, 10μΜ ([6]; 10μΜ): 77.5%; cell viability, IGR37 XP, 1μΜ ([6]; 1μΜ, in %): 97.8 |
| O=C(O)c1ccc(Nc2ncc3c(n2)-c2ccc(Cl)cc2C(c2c(F)cccc2F)=NC3)cc1 [MLN8054] | 86.3 | 77.0 | 86.0 | 65.6 | 74.5 | 59.4 | 41.6 | 66.5 | 70.2 | 45.2 | 75.7 | 52.2 | 98.2 | 64.8 | 94.0 | 66.7 | 94.1 | 42.0 |  |  |  |
| Cn1cc(C2=C(c3cn(C4CCN(Cc5ccccn5)CC4)c4ccccc34)C(=O)NC2=O)c2ccccc21 [Enzastaurin (LY317615)] |  |  |  |  |  |  |  |  |  |  |  |  |  |  |  |  |  |  | 78.4 | 63.8 | Cell viability in kinase inhibitor library screening, 501Mel GP, 1μΜ ([1]; 1μΜ, in %): 92.5; Cell viability in kinase inhibitor library screening, 501Mel GP, 10μΜ ([1]; 10μΜ, in %): 54.6; Cell viability in kinase inhibitor library screening, 501Mel XP, 1μΜ ([2]; 1μΜ, in %): 85.4; Cell viability in kinase inhibitor library screening, 501Mel XP, 10μΜ ([2]; 10μΜ, in %): 48.1; Cell viability in kinase inhibitor library screening, A375 Parental, 10μΜ (A375 cells (parental); 10μΜ): 55.3; Cell viability in kinase inhibitor library screening, A375 Parental, 1μΜ (A375 cells (parental); 1μΜ): 99.1; Cell viability in kinase inhibitor library screening, A375 GP, 1μΜ ([3]; 1μΜ): 97.4; Cell viability in kinase inhibitor library screening, A375 GP, 10μΜ ([3]; 10μΜ): 58.1; Cell viability in kinase inhibitor library screening, A375 XP, 1μΜ ([4]; 1μΜ): 103.5; Cell viability in kinase inhibitor library screening, A375 XP, 10μΜ ([4]; 10μΜ): 66.7; Cell viability in kinase inhibitor library screening, IGR37 Parental, 10μΜ (IGR37 cells (parental); 10μΜ, in %): 82.6; Cell viability in kinase inhibitor library screening, IGR37 GP, 10μΜ ([5]; 10μΜ): 58.7%; Cell viability in kinase inhibitor library screening, IGR37 GP, 1μΜ ([5]; 1μΜ, in %): 100.0; Cell viability in kinase inhibitor library screening, IGR37 XP, 10μΜ ([6]; 10μΜ): 31.7%; Cell viability in kinase inhibitor library screening, IGR37 XP, 1μΜ ([6]; 1μΜ, in %): 98.3 |
| COc1ccc2c(c1OC)N=C(NC(=O)c1cccnc1)N1CCN=C21 [PIK-90] |  |  |  |  |  |  |  |  |  |  |  |  |  |  |  |  |  |  | 97.1 | 71.7 | Cell viability in kinase inhibitor library screening, 501Mel GP, 1μΜ ([1]; 1μΜ, in %): 98.4; Cell viability in kinase inhibitor library screening, 501Mel GP, 10μΜ ([1]; 10μΜ, in %): 50.5; Cell viability in kinase inhibitor library screening, 501Mel XP, 1μΜ ([2]; 1μΜ, in %): 85.8; Cell viability in kinase inhibitor library screening, 501Mel XP, 10μΜ ([2]; 10μΜ, in %): 43.2; Cell viability in kinase inhibitor library screening, A375 Parental, 10μΜ (A375 cells (parental); 10μΜ): 58.0; Cell viability in kinase inhibitor library screening, A375 Parental, 1μΜ (A375 cells (parental); 1μΜ): 94.8; Cell viability in kinase inhibitor library screening, A375 GP, 1μΜ ([3]; 1μΜ): 90.1; Cell viability in kinase inhibitor library screening, A375 GP, 10μΜ ([3]; 10μΜ): 52.7; Cell viability in kinase inhibitor library screening, A375 XP, 1μΜ ([4]; 1μΜ): 91.5; Cell viability in kinase inhibitor library screening, A375 XP, 10μΜ ([4]; 10μΜ): 58.7; Cell viability in kinase inhibitor library screening, IGR37 Parental, 10μΜ (IGR37 cells (parental); 10μΜ, in %): 82.3; Cell viability in kinase inhibitor library screening, IGR37 GP, 10μΜ ([5]; 10μΜ): 60.2%; Cell viability in kinase inhibitor library screening, IGR37 GP, 1μΜ ([5]; 1μΜ, in %): 89.1; Cell viability in kinase inhibitor library screening, IGR37 XP, 10μΜ ([6]; 10μΜ): 19.4%; Cell viability in kinase inhibitor library screening, IGR37 XP, 1μΜ ([6]; 1μΜ, in %): 85.5 |
| Cc1csc(-c2nnc(Nc3ccc(Oc4ncccc4-c4ccnc(N)n4)cc3)c3ccccc23)c1 [AMG 900] | 87.5 | 70.0 | 90.4 | 60.6 | 77.2 | 59.1 | 30.4 | 46.4 | 44.4 | 34.7 | 52.6 | 47.5 | 94.6 | 78.1 |  | 79.9 | 100.0 | 66.5 |  |  |  |
| O=C(Nc1c[nH]nc1-c1nc2ccc(CN3CCOCC3)cc2[nH]1)NC1CC1 [AT9283] | 67.5 | 2.0 | 72.2 | 0.469 | 63.4 | 0.184 | 6.2 | 27.1 | 32.2 | 3.3 | 38.4 | 9.8 | 90.9 | 1.1 | 97.8 | 3.7 | 82.7 | 1.5 |  |  |  |
| Cc1[nH]c(/C=C2\C(=O)Nc3ccc(S(=O)(=O)Cc4c(Cl)cccc4Cl)cc32)c(C)c1C(=O)N1CCC[C@@H]1CN1CCCC1 [PHA-665752] | 100.2 | 0.232 | 86.9 | -0.7 | 70.6 | -0.7 | 1.9 | 98.9 | 96.1 | 0.5 | 99.9 | 0.9 | 99.2 | 0.24 | 98.8 | 0.8 |  | 0.9 |  |  |  |
| CNC(=O)Nc1ccc(-c2nc(N3CC4CCC(C3)O4)c3cnn(C4CCC5(CC4)OCCO5)c3n2)cc1 [WYE-125132] |  |  |  |  |  |  |  |  |  |  |  |  |  |  |  |  |  |  | 17.3 | 5.8 | Cell viability in kinase inhibitor library screening, 501Mel GP, 1μΜ ([1]; 1μΜ, in %): 16.3; Cell viability in kinase inhibitor library screening, 501Mel GP, 10μΜ ([1]; 10μΜ, in %): 8.1; Cell viability in kinase inhibitor library screening, 501Mel XP, 1μΜ ([2]; 1μΜ, in %): 18.5; Cell viability in kinase inhibitor library screening, 501Mel XP, 10μΜ ([2]; 10μΜ, in %): 5.5; Cell viability in kinase inhibitor library screening, A375 Parental, 10μΜ (A375 cells (parental); 10μΜ): 19.3; Cell viability in kinase inhibitor library screening, A375 Parental, 1μΜ (A375 cells (parental); 1μΜ): 22.3; Cell viability in kinase inhibitor library screening, A375 GP, 1μΜ ([3]; 1μΜ): 22.4; Cell viability in kinase inhibitor library screening, A375 GP, 10μΜ ([3]; 10μΜ): 15.7; Cell viability in kinase inhibitor library screening, A375 XP, 1μΜ ([4]; 1μΜ): 19.4; Cell viability in kinase inhibitor library screening, A375 XP, 10μΜ ([4]; 10μΜ): 17.0; Cell viability in kinase inhibitor library screening, IGR37 Parental, 1μΜ (IGR37 cells (parental); 1μΜ, in %): 27.6; Cell viability in kinase inhibitor library screening, IGR37 Parental, 10μΜ (IGR37 cells (parental); 10μΜ, in %): 22.1; Cell viability in kinase inhibitor library screening, IGR37 GP, 10μΜ ([5]; 10μΜ): 34%; Cell viability in kinase inhibitor library screening, IGR37 GP, 1μΜ ([5]; 1μΜ, in %): 43.3; Cell viability in kinase inhibitor library screening, IGR37 XP, 10μΜ ([6]; 10μΜ): 12.8%; Cell viability in kinase inhibitor library screening, IGR37 XP, 1μΜ ([6]; 1μΜ, in %): 30.9 |
